Tests used:
Assay in all cases: Test A post-emergence
Parameters in all cases: key: 0 = no effect, 10 = maximum effect; letter = response symbol
bush bean = assay type: in vivo, bush beans; conditions: 0.4 kg/ha
morningglory = assay type: in vivo, Ipomoea spp.
Outline: (§1)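 Seeds and tubers were treated preemergence in a growth medium with compound in a nonphytotoxic solvent, against untreated controls; emerged plants such as two-leaf barnyardgrass and five-leaf cotton were sprayed postemergence, against solvent-sprayed controls. After sixteen days in a greenhouse, response was rated visually from 0 to 10.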

cocklebur = assay type: in vivo, Xanthium spp.
Outline: as §1

cassia = assay type: in vivo, Cassia tora
Outline: as §1

nutsedge = assay type: in vivo, Cyperus rotundus
Outline: as §1

crabgrass = assay type: in vivo, Digitaria spp.
Outline: as §1

barnyardgrass = assay type: in vivo, Echinochloa crusgalli
Outline: as §1

corn = assay type: in vivo
Outline: as §1

rice = assay type: in vivo
Outline: as §1

sorghum = assay type: in vivo
Outline: as §1

soybean = assay type: in vivo
Outline: as §1

wild oats = assay type: in vivo, Avena fatua
Outline: as §1

wheat = assay type: in vivo
Outline: as §1

cotton = assay type: in vivo
Outline: as §1

SMILES	response rating (morningglory; 0.4 kg/ha) [C]	response rating (cocklebur; 0.4 kg/ha) [C]	response rating (cassia; 0.4 kg/ha)	response rating (nutsedge; 0.4 kg/ha)	response rating (crabgrass; 0.4 kg/ha)	response rating (barnyardgrass; 0.4 kg/ha)	response rating (corn; 0.4 kg/ha)	response rating (rice; 0.4 kg/ha)	response rating (sorghum; 0.4 kg/ha)	response rating (soybean; 0.4 kg/ha)	response rating (cotton; 0.4 kg/ha) [C]	response rating (wheat; 0.4 kg/ha)	response rating (wild oats; 0.4 kg/ha)	also measured
COC(=O)c1ccccc1S(=O)(=O)NC(=O)Nc1nc(OC)nc(OC)n1 [drawing 416]	10	9	9C	9C	9C	10C	10C	10C	9C	9C	–	–	–	response rating (bush bean): 9C
COC(=O)c1ccccc1S(=O)(=O)NC(=O)Nc1nnc(C)c(C)n1 [drawing 417]	–	–	–	–	–	–	–	–	–	–	–	–	–	response rating (cocklebur; 2 kg/ha): 9C; response rating (cassia; 2 kg/ha): 9C; response rating (nutsedge; 2 kg/ha): 9C; response rating (crabgrass; 2 kg/ha): 9C; response rating (barnyardgrass; 2 kg/ha): 9C; response rating (wild oats; 2 kg/ha): 9C; response rating (rice; 2 kg/ha): 9C; response rating (sorghum; 2 kg/ha): 9C; response rating (soybean; 2 kg/ha): 9C; response rating (wheat; 2 kg/ha): 10C
COc1nc(NC(=O)NS(=O)(=O)c2ccccc2C(=O)OCCCl)nc(OC)n1 [drawing 422]	10	10	10C	10C	2C	–	–	6G	–	–	9	1C	–	response rating (bush bean): 9C
CCCCCCCCCCOC(=O)c1ccccc1S(=O)(=O)NC(=O)Nc1nc(OC)cc(OC)n1 [drawing 427]	1	–	5G	2G	2G	–	–	8G	9G	1H	–	1C	1C	–
CCCCCCCCCCOC(=O)c1ccccc1S(=O)(=O)NC(=O)Nc1nc(OC)nc(OC)n1 [drawing 429]	–	–	5G	3G	3G	1C	6H	2G	7H	7G	–	0	0	–
CCCCCCCCCCOC(=O)c1ccccc1S(=O)(=O)NC(=O)Nc1nc(C)nc(OC)n1 [drawing 430]	–	–	–	2G	0	2H	7H	6G	–	6H	–	0	0	–
COc1cc(OC)nc(NC(=O)NS(=O)(=O)c2ccccc2C(=O)OC(C)C)n1 [drawing 436]	10	10	9C	9C	6C	9C	–	7C	9C	–	9	–	6C	–
COc1cc(C)nc(NC(=O)NS(=O)(=O)c2ccccc2C(=O)OC(C)C)n1 [drawing 437]	9	10	9C	9C	–	10C	9C	8C	10C	–	10	–	–	–
COc1nc(NC(=O)NS(=O)(=O)c2ccccc2C(=O)OC(C)C)nc(OC)n1 [drawing 438]	10	10	9C	9C	6G	8C	–	8C	–	–	9	2C	2C	–
CCCCOC(=O)c1ccccc1S(=O)(=O)NC(=O)Nc1nc(OC)cc(OC)n1 [drawing 439]	9	9	–	–	–	9C	–	–	–	–	–	–	–	response rating (morningglory; 2 kg/ha): 10C; response rating (cocklebur; 2 kg/ha): 9C; response rating (cassia; 2 kg/ha): 9C; response rating (nutsedge; 2 kg/ha): 9C; response rating (barnyardgrass; 2 kg/ha): 10C; response rating (wild oats; 2 kg/ha): 9C; response rating (corn; 2 kg/ha): 9C; response rating (cotton; 2 kg/ha): 9C; response rating (rice; 2 kg/ha): 9C; response rating (sorghum; 2 kg/ha): 9C; response rating (wheat; 2 kg/ha): 9C
